What was measured:
[1] = target: Human immunodeficiency virus type 1 protease (Human immunodeficiency virus 1, UniProt Q72874); experiment: Inhibition of HIV-1 protease
[2] = system: Human immunodeficiency virus 1; experiment: Inhibitory concentration was evaluated to inhibit 95% of HIV-1 spread in MT4 cells

Row | SMILES | IC50 [1] [nM] | IC95 [2] [nM]
1 | O=C(N[C@@H](Cc1ccccc1)[C@@H](O)C[C@@H](Cc1ccccc1)C(=O)N[C@H]1c2ccccc2C[C@H]1O)O[C@@H]1CCCOC1 | < 0.03 | 25
2 | O=C(N[C@@H](Cc1ccccc1)[C@@H](O)C[C@@H](Cc1ccccc1)C(=O)N[C@H]1c2ccccc2C[C@H]1O)OC1CCOCC1 | 1.22 | –
3 | O=C(N[C@@H](Cc1ccccc1)[C@@H](O)C[C@@H](Cc1ccccc1)C(=O)N[C@H]1c2ccccc2C[C@H]1O)O[C@@H]1CCOC1 | 0.03 | 100
4 | O=C(N[C@@H](Cc1ccccc1)[C@@H](O)C[C@@H](Cc1ccccc1)C(=O)N[C@H]1c2ccccc2C[C@H]1O)O[C@H]1CCOC1 | < 0.03 | 3
5 | CC(C)(C)NC(=O)[C@@H]1C[C@@H]2CCCC[C@@H]2CN1C[C@@H](O)[C@H](Cc1ccccc1)NC(=O)O[C@H]1C=CCOC1 | 314 | –
6 | CC(C)(C)NC(=O)[C@@H]1C[C@@H]2CCCC[C@@H]2CN1C[C@@H](O)[C@H](Cc1ccccc1)NC(=O)O[C@@H]1C=CCOC1 | 48.9 | –
7 | CC(C)(C)OC(=O)N[C@@H](Cc1ccccc1)[C@@H](O)C[C@@H](Cc1ccccc1)C(=O)N[C@H]1c2ccccc2C[C@H]1O | – | 400
8 | CC(C)(C)NC(=O)[C@@H]1C[C@@H]2CCCC[C@@H]2CN1C[C@@H](O)[C@H](Cc1ccccc1)NC(=O)O[C@@H]1CCCOC1 | 308 | –
9 | O=C(N[C@@H](Cc1ccccc1)[C@@H](O)C[C@@H](Cc1ccccc1)C(=O)N[C@H]1c2ccccc2C[C@H]1O)OC1CCCC1 | 0.33 | 400
10 | CC(C)(C)NC(=O)[C@@H]1C[C@@H]2CCCC[C@@H]2CN1C[C@@H](O)[C@H](Cc1ccccc1)NC(=O)O[C@H]1CCCOC1 | 392 | –
11 | O=C(N[C@@H](Cc1ccccc1)[C@@H](O)C[C@@H](Cc1ccccc1)C(=O)N[C@H]1c2ccccc2C[C@H]1O)O[C@H]1CCCOC1 | < 0.03 | 50
12 | CC(C)(C)NC(=O)[C@@H]1C[C@@H]2CCCC[C@@H]2CN1C[C@@H](O)[C@H](Cc1ccccc1)NC(=O)OC(C)(C)C | > 3000 | –

— ChEMBL document CHEMBL1127030, “3-Tetrahydrofuran and pyran urethanes as high-affinity P2-ligands for HIV-1 protease inhibitors” (J Med Chem, 1993)
